Marks after values point to notes of the source that are not given here.
Experiments:
full-length human RORγt = full-length human RORγt (Homo sapiens (Human), UniProt P51449); assay: RORγt (full-length human) reporter assay, Conditions B or C; type: cell-based; settings: for inhibition at 3 µM / RORγt (FL) Reporter Assay B or C, % inhibition: at 3 μM compound concentration; for IC50: read-out: RORγt (FL) Reporter Assay B or C, IC50
Outline: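 Readout is dual luciferase: firefly (GAL4-driven) normalized to DMSO-only and saturating-reference controls, then to CMV-Renilla. Full-length human RORγt fused to GAL4-DBD was transiently expressed in HEK293T; compound exposure ran overnight (16-20 h) starting 4-6 h after transfection, final FBS 1.3%, DMSO 0.1%.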

[1] = molecular target: human RORγt ligand binding domain (RORγt LBD) (Homo sapiens (Human), UniProt P51449); assay: RORγt ThermoFluor® assay (thermal shift binding); settings: read-out: ThermoFluor® Assay, Kd
Outline: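 Binding was inferred from thermal stabilisation (ΔTm) of the E. coli-expressed RORγt LBD (0.065 mg/mL), monitored by 1,8-ANS (60 μM) emission at 500 nm during a 1 °C/min ramp. Buffer was Hepes 100 mM pH 7.0 with NaCl, GSH and Tween-20.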

[2] = read-out: RORγt (FL) Reporter Assay B or C, % inhibition

Sequence of human RORγt ligand binding domain (RORγt LBD) (P51449 other isoform, or with tags, fused parts or gaps): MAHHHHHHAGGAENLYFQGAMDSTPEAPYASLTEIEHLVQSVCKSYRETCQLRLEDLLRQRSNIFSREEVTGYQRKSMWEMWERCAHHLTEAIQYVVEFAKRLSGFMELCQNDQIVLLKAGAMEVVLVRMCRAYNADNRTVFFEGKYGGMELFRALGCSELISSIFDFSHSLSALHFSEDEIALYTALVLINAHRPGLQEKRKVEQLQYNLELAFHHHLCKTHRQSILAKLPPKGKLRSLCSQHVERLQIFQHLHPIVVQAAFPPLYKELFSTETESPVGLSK
Sequence of full-length human RORγt (P51449 other isoform, or with tags, fused parts or gaps): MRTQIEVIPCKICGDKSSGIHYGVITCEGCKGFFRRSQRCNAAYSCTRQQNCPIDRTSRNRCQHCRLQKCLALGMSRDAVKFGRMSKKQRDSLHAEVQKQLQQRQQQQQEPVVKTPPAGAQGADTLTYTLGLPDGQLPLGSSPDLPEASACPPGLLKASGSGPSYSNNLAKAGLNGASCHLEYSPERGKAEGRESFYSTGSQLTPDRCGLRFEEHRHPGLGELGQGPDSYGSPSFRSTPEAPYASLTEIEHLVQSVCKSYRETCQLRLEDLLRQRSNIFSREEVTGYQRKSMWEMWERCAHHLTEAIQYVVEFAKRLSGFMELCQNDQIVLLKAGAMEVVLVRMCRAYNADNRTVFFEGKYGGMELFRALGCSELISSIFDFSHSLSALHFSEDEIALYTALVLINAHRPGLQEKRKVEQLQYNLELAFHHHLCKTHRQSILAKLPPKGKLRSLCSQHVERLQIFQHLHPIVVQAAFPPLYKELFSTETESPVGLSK

| inhibition at 3 µM (full-length human RORγt; [2]) [%] | IC50 (full-length human RORγt) [nM] | Kd [1] [nM] | RORγt (FL) Reporter Assay B or C, % inhibition (full-length human RORγt) | inhibition at 1 µM (full-length human RORγt; at 1 μM compound concentration, read-out: RORγt (FL) Reporter Assay B or C, % inhibition) [%] | Structure (SMILES) |
| --- | --- | --- | --- | --- | --- |
| 105 | 29 | 5.7 |  |  | CC[C@H](Nc1cc(C(F)F)c(-c2sc(C(=O)NC3CCC3O)nc2C(=O)N2CCC[C@@H]2C)cn1)C(F)(F)F (stereo partly drawn) [Example 375, 5-(4-(Difluoromethyl)-6-(((S)-1,1,1-trifluorobutan-2-yl)amino)pyridin-3-yl)-N-(trans-2-hydroxycyclobutyl)-4-((S)-2-methylpyrrolidine-1-carbonyl)thiazole-2-carboxamide] |
| 109 | 79 | 18 |  |  | CC[C@H](Nc1cc(C(F)F)c(-c2sc(C(=O)N3CC4CCC(C3)O4)nc2C(=O)N2CCC[C@@H]2C)cn1)C(F)(F)F [Example 378, [5-[4-(Difluoromethyl)-6-[[(1S)-1-(trifluoromethyl)propyl]amino]-3-pyridyl]-2-(8-oxa-3-azabicyclo[3.2.1]octane-3-carbonyl)thiazol-4-yl]-[(2S)-2-methylpyrrolidin-1-yl]methanone] |
|  | 55 | 2.4 | 101* % |  | CC[C@H](Nc1cc(C(F)F)c(-c2sc(C(=O)NC3CCC3O)nc2C(=O)N2CCC[C@@H]2C)cn1)C(F)(F)F (stereo partly drawn) [Example 379, 5-(4-(Difluoromethyl)-6-(((S)-1,1,1-trifluorobutan-2-yl)amino)pyridin-3-yl)-N-(cis-2-hydroxycyclobutyl)-4-((S)-2-methylpyrrolidine-1-carbonyl)thiazole-2-carboxamide] |
| 107 | 300 | 47 |  |  | CC[C@H](Nc1cc(C(F)F)c(-c2sc(C(=O)NC3CN(C(C)=O)C3)nc2C(=O)N2CCC[C@@H]2C)cn1)C(F)(F)F [Example 382, N-(1-Acetylazetidin-3-yl)-5-[4-(difluoromethyl)-6-[[(1S)-1-(trifluoromethyl)propyl]amino]-3-pyridyl]-4-[(2S)-2-methylpyrrolidine-1-carbonyl]thiazole-2-carboxamide] |
| 108 | 92 | 2.6 |  |  | CC[C@H](Nc1cc(C(F)F)c(-c2sc(C(=O)NC3CN(S(C)(=O)=O)C3)nc2C(=O)N2CCC[C@@H]2C)cn1)C(F)(F)F [Example 383, 5-[4-(Difluoromethyl)-6-[[(1S)-1-(trifluoromethyl)propyl]amino]-3-pyridyl]-4-[(2S)-2-methylpyrrolidine-1-carbonyl]-N-(1-methylsulfonylazetidin-3-yl)thiazole-2-carboxamide] |
| 98 | 70 | 5 |  |  | CC[C@H](Nc1cc(C(F)F)c(-c2sc(C(=O)N3CC4(COC4)C3)nc2C(=O)N2CCC[C@@H]2C)cn1)C(F)(F)F [Example 384, [5-[4-(Difluoromethyl)-6-[[(1S)-1-(trifluoromethyl)propyl]amino]-3-pyridyl]-2-(6-oxa-2-azaspiro[3.3]heptane-2-carbonyl)thiazol-4-yl]-[(2S)-2-methylpyrrolidin-1-yl]methanone] |
| 95 | 350 | 100 |  |  | CC[C@H](Nc1cc(C(F)F)c(-c2sc(C(=O)N3CC4(CCO4)C3)nc2C(=O)N2CCC[C@@H]2C)cn1)C(F)(F)F [Example 385, [5-[4-(Difluoromethyl)-6-[[(1S)-1-(trifluoromethyl)propyl]amino]-3-pyridyl]-2-(3-oxa-6-azaspiro[3.3]heptane-6-carbonyl)thiazol-4-yl]-[(2S)-2-methylpyrrolidin-1-yl]methanone] |
| 99 | 72 | 9.4 |  |  | C[C@H](Nc1cc(C(F)F)c(-c2sc(C(=O)NC3CCC3O)nc2C(=O)N2CCC[C@@H]2C)cn1)C(F)(F)F (stereo partly drawn) [Example 386, 5-(4-(Difluoromethyl)-6-(((S)-1,1,1-trifluoropropan-2-yl)amino)pyridin-3-yl)-N-(trans-2-hydroxycyclobutyl)-4-((S)-2-methylpyrrolidine-1-carbonyl)thiazole-2-carboxamide] |
|  | 140 | 7.7 | 90* % |  | C[C@H](Nc1cc(C(F)F)c(-c2sc(C(=O)NC3CCC3O)nc2C(=O)N2CCC[C@@H]2C)cn1)C(F)(F)F (stereo partly drawn) [Example 389, 5-(4-(Difluoromethyl)-6-(((S)-1,1,1-trifluoropropan-2-yl)amino)pyridin-3-yl)-N-(cis-2-hydroxycyclobutyl)-4-((S)-2-methylpyrrolidine-1-carbonyl)thiazole-2-carboxamide] |
| 118 | 27 | 29 |  |  | CC[C@H](Nc1cc(C(F)F)c(-c2sc(C(=O)N3CC(S(C)(=O)=O)C3)nc2C(=O)N2CCC[C@@H]2C)cn1)C(F)(F)F [Example 393, [5-[4-(Difluoromethyl)-6-[[(1S)-1-(trifluoromethyl)propyl]amino]-3-pyridyl]-2-(3-methylsulfonylazetidine-1-carbonyl)thiazol-4-yl]-[(28)-2-methylpyrrolidin-1-yl]methanone] |
| 114 | 34 | 2 |  |  | CC[C@H](Nc1cc(C(F)F)c(-c2sc(C(=O)NC3CCOCC3)nc2C(=O)N2CCC[C@@H]2C)cn1)C(F)(F)F [Example 394, 5-[4-(Difluoromethyl)-6-[[(1S)-1-(trifluoromethyl)propyl]amino]-3-pyridyl]-4-[(2S)-2-methylpyrrolidine-1-carbonyl]-N-tetrahydropyran-4-yl-thiazole-2-carboxamide] |
| 103 | 34 | 40 |  |  | CC[C@H](Nc1cc(C(F)F)c(-c2sc(C(=O)N3CCOCC3)nc2C(=O)N2CCC[C@@H]2C)cn1)C(F)(F)F [Example 395, [5-[4-(Difluoromethyl)-6-[[(1S)-1-(trifluoromethyl)propyl]amino]-3-pyridyl]-2-(morpholine-4-carbonyl)thiazol-4-yl]-[(2S)-2-methylpyrrolidin-1-yl]methanone] |
| 96 | 21 | 1.1 |  |  | C[C@H]1CCCN1C(=O)c1nc(C(=O)N[C@H]2CCC[C@@H]2O)sc1-c1cnc(NC(C)(C)C)cc1C(F)F [Example 396, 5-[6-(tert-Butylamino)-4-(difluoromethyl)-3-pyridyl]-N-[(1S,2S)-2-hydroxycyclopentyl]-4-[(2S)-2-methylpyrrolidine-1-carbonyl]thiazole-2-carboxamide] |
| 118 | 9 | 1.2 |  |  | C[C@H]1CCCN1C(=O)c1nc(C(=O)N[C@@H]2CCC[C@H]2O)sc1-c1cnc(NC(C)(C)C)cc1C(F)F [Example 397, 5-[6-(tert-Butylamino)-4-(difluoromethyl)-3-pyridyl]-N-[(1R,2R)-2-hydroxycyclopentyl]-4-[(2S)-2-methylpyrrolidine-1-carbonyl]thiazole-2-carboxamide] |
| 109 | 39 | 1.5 |  |  | CC[C@H](Nc1cc(C(F)F)c(-c2sc(C(=O)N[C@H]3CC[C@H](O)C3)nc2C(=O)N2CCC[C@@H]2C)cn1)C(F)(F)F [Example 398, 5-[4-(Difluoromethyl)-6-[[(1S)-1-(trifluoromethyl)propyl]amino]-3-pyridyl]-N-[(1S,3S)-3-hydroxycyclopentyl]-4-[(2S)-2-methylpyrrolidine-1-carbonyl]thiazole-2-carboxamide] |
| 100 | 25 | 1.2 |  |  | CC[C@H](Nc1cc(C(F)F)c(-c2sc(C(=O)N[C@@H]3CC[C@@H](O)C3)nc2C(=O)N2CCC[C@@H]2C)cn1)C(F)(F)F [Example 399, 5-[4-(Difluoromethyl)-6-[[(1S)-1-(trifluoromethyl)propyl]amino]-3-pyridyl]-N-[(1R,3R)-3-hydroxycyclopentyl]-4-[(2S)-2-methylpyrrolidine-1-carbonyl]thiazole-2-carboxamide] |
| 84 | 56 | 13 |  |  | C[C@H]1CCCN1C(=O)c1nc(C(=O)N[C@H]2C[C@H](O)C2)sc1-c1cnc(NC(C)(C)C)cc1C(F)F [Example 400, 5-(6-(tert-Butylamino)-4-(difluoromethyl)pyridin-3-yl)-N-((1R,3S)-3-hydroxycyclobutyl)-4-((S)-2-methylpyrrolidine-1-carbonyl)thiazole-2-carboxamide] |
|  | 38 | 4.3 |  | 102 | C[C@H]1CCCN1C(=O)c1nc(C(=O)N[C@H]2COC[C@@H]2O)sc1-c1cnc(NC(C)(C)C)cc1C(F)F [Example 401, 5-[6-(tert-Butylamino)-4-(difluoromethyl)-3-pyridyl]-N-[(3S,4R)-4-hydroxytetrahydrofuran-3-yl]-4-[(2S)-2-methylpyrrolidine-1-carbonyl]thiazole-2-carboxamide] |
| 99 | 37 | 5.8 |  |  | C[C@H]1CCCN1C(=O)c1nc(C(=O)N[C@@H]2COC[C@H]2O)sc1-c1cnc(NC(C)(C)C)cc1C(F)F [Example 402, 5-[6-(tert-Butylamino)-4-(difluoromethyl)-3-pyridyl]-N-[(3R,4S)-4-hydroxytetrahydrofuran-3-yl]-4-[(2S)-2-methylpyrrolidine-1-carbonyl]thiazole-2-carboxamide] |

| Structure (SMILES) | inhibition at 3 µM (full-length human RORγt; [2]) [%] | IC50 (full-length human RORγt) [nM] | Kd [1] [nM] | RORγt (FL) Reporter Assay B or C, % inhibition (full-length human RORγt) | inhibition at 1 µM (full-length human RORγt; at 1 μM compound concentration, read-out: RORγt (FL) Reporter Assay B or C, % inhibition) [%] |
| --- | --- | --- | --- | --- | --- |
| CC[C@H](Nc1cc(C(F)F)c(-c2sc(C(=O)N3CC4CC(C3)O4)nc2C(=O)N2CCC[C@@H]2C)cn1)C(F)(F)F [Example 392, [5-[4-(Difluoromethyl)-6-[[(1S)-1-(trifluoromethyl)propyl]amino]-3-pyridyl]-2-(6-oxa-3-azabicyclo[3.1.1]heptane-3-carbonyl)thiazol-4-yl]-[(2S)-2-methylpyrrolidin-1-yl]methanone] | 102 | 130 | 44 |  |  |
